The source of these data is publication PMC9516332 (Frontiers in Oncology, 2022).

Common to all, as to experiment: Kinase panel profiling at 1 µmol/L (MSA or IMAP), percentage inhibition
Type in all cases: biochemical

In experiment [1] the target is T1, panel of 255 wild-type kinases (Homo sapiens, UniProt Q14164).
T1 sequence (Q14164 1-716): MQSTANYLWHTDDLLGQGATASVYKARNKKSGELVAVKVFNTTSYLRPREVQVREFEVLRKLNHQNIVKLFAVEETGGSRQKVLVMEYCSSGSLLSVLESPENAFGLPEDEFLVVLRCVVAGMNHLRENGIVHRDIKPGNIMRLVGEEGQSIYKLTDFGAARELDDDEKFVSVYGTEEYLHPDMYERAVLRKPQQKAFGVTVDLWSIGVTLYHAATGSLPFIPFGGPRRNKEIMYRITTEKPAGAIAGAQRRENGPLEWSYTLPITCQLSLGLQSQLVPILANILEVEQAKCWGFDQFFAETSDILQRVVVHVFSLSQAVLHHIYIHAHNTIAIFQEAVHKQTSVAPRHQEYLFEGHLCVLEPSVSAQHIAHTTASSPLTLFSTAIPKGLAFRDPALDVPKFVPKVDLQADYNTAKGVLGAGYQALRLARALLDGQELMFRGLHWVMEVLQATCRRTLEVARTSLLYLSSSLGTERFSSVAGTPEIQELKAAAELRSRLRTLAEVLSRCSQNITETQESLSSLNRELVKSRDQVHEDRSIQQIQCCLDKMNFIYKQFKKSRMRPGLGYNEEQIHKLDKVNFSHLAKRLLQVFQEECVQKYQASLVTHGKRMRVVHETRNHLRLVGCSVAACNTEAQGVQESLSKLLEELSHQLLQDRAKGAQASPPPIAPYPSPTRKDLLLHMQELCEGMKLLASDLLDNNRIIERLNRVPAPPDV
The note with it: read-out: %-inhibition at 1 µmol/L, IKKε.

Experiment [2] concerns the target panel of 255 wild-type kinases (Homo sapiens, UniProt Q07912). The note with it: read-out: %-inhibition ACK.
For experiment [3], the target named is T2, panel of 255 wild-type kinases (Homo sapiens, UniProt P52333).
T2 sequence (P52333 1-1124): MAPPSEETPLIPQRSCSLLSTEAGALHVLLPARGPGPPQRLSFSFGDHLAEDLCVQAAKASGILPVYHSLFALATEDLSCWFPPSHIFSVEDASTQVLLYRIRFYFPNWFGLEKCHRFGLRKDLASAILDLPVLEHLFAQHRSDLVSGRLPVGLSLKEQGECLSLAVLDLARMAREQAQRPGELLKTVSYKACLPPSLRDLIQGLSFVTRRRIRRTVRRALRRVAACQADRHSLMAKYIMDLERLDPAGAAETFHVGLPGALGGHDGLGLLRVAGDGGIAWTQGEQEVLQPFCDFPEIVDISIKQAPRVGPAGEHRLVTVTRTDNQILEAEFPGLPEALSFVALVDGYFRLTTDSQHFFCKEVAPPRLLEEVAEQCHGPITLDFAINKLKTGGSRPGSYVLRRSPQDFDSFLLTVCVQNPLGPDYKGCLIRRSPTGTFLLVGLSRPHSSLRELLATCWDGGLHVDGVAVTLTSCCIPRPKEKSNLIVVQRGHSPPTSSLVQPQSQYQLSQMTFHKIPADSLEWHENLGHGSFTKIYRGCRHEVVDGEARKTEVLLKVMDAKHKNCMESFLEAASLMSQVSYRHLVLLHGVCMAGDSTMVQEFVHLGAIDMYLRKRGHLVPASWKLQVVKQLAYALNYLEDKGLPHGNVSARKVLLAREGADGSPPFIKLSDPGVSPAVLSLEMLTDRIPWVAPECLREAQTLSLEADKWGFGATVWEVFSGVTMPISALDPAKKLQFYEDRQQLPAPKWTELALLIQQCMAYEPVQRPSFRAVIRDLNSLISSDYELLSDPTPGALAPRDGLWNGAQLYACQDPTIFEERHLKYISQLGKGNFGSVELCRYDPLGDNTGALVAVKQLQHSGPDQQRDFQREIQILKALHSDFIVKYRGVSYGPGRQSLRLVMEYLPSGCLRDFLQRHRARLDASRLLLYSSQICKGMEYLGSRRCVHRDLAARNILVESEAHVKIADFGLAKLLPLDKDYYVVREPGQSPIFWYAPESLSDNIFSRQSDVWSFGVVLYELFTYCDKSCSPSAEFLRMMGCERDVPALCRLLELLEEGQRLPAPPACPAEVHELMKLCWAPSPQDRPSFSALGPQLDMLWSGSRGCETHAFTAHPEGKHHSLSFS
The note with it: read-out: %-inhibition at 1 µmol/L, JAK3.

In experiment [4] the target is panel of 255 wild-type kinases (Homo sapiens, UniProt P49674). The note with it: read-out: %-inhibition at 1 µmol/L, CK1ε.
The target of experiment [5] is panel of 255 wild-type kinases (Homo sapiens, UniProt Q9UKE5). The note with it: read-out: %-inhibition at 1 µmol/L, TNIK.
Experiment [6] has as its target panel of 255 wild-type kinases (Homo sapiens, UniProt Q13177). The note with it: read-out: %-inhibition, PAK2.
Experiment [7] addresses panel of 255 wild-type kinases (Homo sapiens, UniProt Q8TDX7). The note with it: read-out: %-inhibition, NEK7.
Where [8] appears, read: kinase IKKε, 1 µmol/L single concentration.
The mark [9] stands for this setting: ACK kinase assay, 1 µmol/L single concentration.
Where [10] appears, read: kinase JAK3, 1 µmol/L single concentration.
[11] abbreviates: kinase CK1ε, 1 µmol/L single concentration.
[12] abbreviates: kinase TNIK, 1 µmol/L single concentration.
Setting [13] is: PAK2, 1 µmol/L single concentration.
Where [14] appears, read: NEK7, 1 µmol/L single concentration.

Structures are written as SMILES. Where two headings read alike, the source gives them in different places.

For `Cc1nc(NC(=O)N2CCC[C@H]2C(N)=O)sc1-c1ccnc(C(C)(C)C(F)(F)F)c1` [alpelisib], the inhibition at 1 µM in experiment [1] (setting [8]) is -4.31%; in experiment [2] (setting [9]), 5.5%; in experiment [3] (setting [10]) it was 0.447%; in experiment [4] (setting [11]), -2.48%; in experiment [5] (setting [12]), 4.6%; in experiment [6] (setting [13]) it was -7%. In experiment [7] (setting [14]), the inhibition at 1 µM came to 0.399%.

For `Cn1cc(-c2cc3c(N4CCN(c5ncc([C@@](C)(N)c6ccc(F)cc6)cn5)CC4)ncnn3c2)cn1` [avapritinib], the inhibition at 1 µM in experiment [1] (setting [8]) was -0.262%; in experiment [2] (setting [9]), 73%; in experiment [3] (setting [10]), 64%; in experiment [4] (setting [11]) it was 2.14%; in experiment [5] (setting [12]), 30%; in experiment [6] (setting [13]), -4.42%. The inhibition at 1 µM in experiment [7] (setting [14]) is -11%.

For `Cn1cnc2c(F)c(Nc3ccc(Br)cc3F)c(C(=O)NOCCO)cc21` [binimetinib], the inhibition at 1 µM was -3% in experiment [1] (setting [8]); -4% in experiment [2] (setting [9]); -0.365% in experiment [3] (setting [10]); -3.48% in experiment [4] (setting [11]); 0.137% in experiment [5] (setting [12]); 12% in experiment [6] (setting [13]). For the same compound, the inhibition at 1 µM in experiment [7] (setting [14]) amounted to 2%.

In the case of `CNC(=O)c1ccc(-c2cnc3ncc(Cc4ccc5ncccc5c4)n3n2)cc1F` [capmatinib], the inhibition at 1 µM in experiment [1] was -5.46%; in experiment [2], 1%; in experiment [3], 3.32%; in experiment [4] it was -6%; in experiment [5] it was 1.68%; in experiment [6], -1.68%. The inhibition at 1 µM in experiment [7] was -9%.

For the compound `COc1cc2ncnc(Nc3ccc(F)c(Cl)c3)c2cc1NC(=O)/C=C/CN1CCCCC1` [dacomitinib], the inhibition at 1 µM was -2.11% in experiment [1] (setting [8]); 32% in experiment [2] (setting [9]); 28% in experiment [3] (setting [10]); 6.55% in experiment [4] (setting [11]); 27% in experiment [5] (setting [12]); 2.5% in experiment [6] (setting [13]). Also, in experiment [7] (setting [14]), the inhibition at 1 µM was -4.37%.

Take `C[C@H](Nc1ncnc2nc[nH]c12)c1cc2cccc(Cl)c2c(=O)n1-c1ccccc1` [duvelisib]: the inhibition at 1 µM in experiment [1] (setting [8]) is -0.56%; in experiment [2] (setting [9]), 2.28%; in experiment [3] (setting [10]), 3%; in experiment [4] (setting [11]) it was 5%; in experiment [5] (setting [12]) it was 5%; in experiment [6] (setting [13]), -1%. Further, the inhibition at 1 µM in experiment [7] (setting [14]) is -0.791%.

Turning to `COC(=O)N[C@@H](C)CNc1nccc(-c2cn(C(C)C)nc2-c2cc(Cl)cc(NS(C)(=O)=O)c2F)n1` [encorafenib], the inhibition at 1 µM in experiment [1] (setting [8]) is -3.36%; in experiment [2] (setting [9]) it was -4.66%; in experiment [3] (setting [10]), 2.28%; in experiment [4] (setting [11]), 15%; in experiment [5] (setting [12]), 14%; in experiment [6] (setting [13]), 9.49%. For the same compound, the inhibition at 1 µM in experiment [7] (setting [14]) stood at 5%.

On to `CN1CCN(c2ccc(C(=O)Nc3n[nH]c4ccc(Cc5cc(F)cc(F)c5)cc34)c(NC3CCOCC3)c2)CC1` [entrectinib], for which the inhibition at 1 µM was 7% in experiment [1] (setting [8]); 97% in experiment [3] (setting [10]); 10% in experiment [4] (setting [11]); 20% in experiment [5] (setting [12]); -10% in experiment [6] (setting [13]); -1.81% in experiment [7] (setting [14]).

Turning to `CCc1nc(C(N)=O)c(Nc2ccc(N3CCC(N4CCN(C)CC4)CC3)c(OC)c2)nc1NC1CCOCC1` [gilteritinib], the inhibition at 1 µM is 10% in experiment [1] (setting [8]); 90% in experiment [2] (setting [9]); 91% in experiment [3] (setting [10]); 5.55% in experiment [4] (setting [11]); 94% in experiment [5] (setting [12]); 10% in experiment [6] (setting [13]). Moreover, in experiment [7] (setting [14]), the inhibition at 1 µM is -2%.

In the case of `CCN1CCN(c2ccc(Nc3cc(N(C)C(=O)Nc4c(Cl)c(OC)cc(OC)c4Cl)ncn3)cc2)CC1` [infigratinib], the inhibition at 1 µM in experiment [1] (setting [8]) was -6%; in experiment [2] (setting [9]), 43%; in experiment [3] (setting [10]), 7%; in experiment [4] (setting [11]), -6.49%; in experiment [6] (setting [13]), 1.66%; in experiment [7] (setting [14]), -3.65%.

In the case of `O=C(Nc1cnn2ccc(N3CCC[C@@H]3c3cc(F)ccc3F)nc12)N1CC[C@H](O)C1` [larotrectinib], the inhibition at 1 µM in experiment [1] (setting [8]) is 7%; in experiment [2] (setting [9]), 52%; in experiment [3] (setting [10]), 6%; in experiment [4] (setting [11]), -2.19%; in experiment [5] (setting [12]), 1.8%; in experiment [6] (setting [13]), -10%. In addition, the inhibition at 1 µM in experiment [7] (setting [14]) is 0.263%.

For `C[C@H]1Oc2cc(cnc2N)-c2c(nn(C)c2C#N)CN(C)C(=O)c2ccc(F)cc21` [lorlatinib], the inhibition at 1 µM was -3.78% in experiment [1] (setting [8]); 6.62% in experiment [3] (setting [10]); 0.583% in experiment [4] (setting [11]); 7% in experiment [5] (setting [12]); 11% in experiment [6] (setting [13]); 1.44% in experiment [7] (setting [14]).

`CCN1C(=O)N(c2c(F)c(OC)cc(OC)c2F)Cc2cnc3[nH]c(CN4CCOCC4)cc3c21` [pemigatinib]: the inhibition at 1 µM in experiment [1] (setting [8]) came to 8.49%; in experiment [2] (setting [9]) it was 4.32%; in experiment [3] (setting [10]) it was 0.2%; in experiment [4] (setting [11]), 1.32%; in experiment [5] (setting [12]), 4%; in experiment [6] (setting [13]) it was 6%. Further, the inhibition at 1 µM in experiment [7] (setting [14]) turned out to be 3%.

`FC(F)(F)c1ccc(CNc2ccc(Cc3c[nH]c4ncc(Cl)cc34)cn2)cn1` [pexidartinib]: the inhibition at 1 µM was -1.81% in experiment [1] (setting [8]); 12% in experiment [2] (setting [9]); 40% in experiment [3] (setting [10]); 5.38% in experiment [4] (setting [11]); 20% in experiment [5] (setting [12]); -2.4% in experiment [6] (setting [13]). Also, in experiment [7] (setting [14]), the inhibition at 1 µM is -2.52%.

On to `CO[C@]1(C(=O)N[C@@H](C)c2ccc(-n3cc(F)cn3)nc2)CC[C@H](c2nc(C)cc(Nc3cc(C)[nH]n3)n2)CC1` [pralsetinib], for which the inhibition at 1 µM in experiment [1] (setting [8]) was -5%; in experiment [2] (setting [9]), 84%; in experiment [3] (setting [10]), 96%; in experiment [4] (setting [11]), -3%; in experiment [5] (setting [12]) it was 6.58%; in experiment [6] (setting [13]) it was 16%. In experiment [7] (setting [14]), the inhibition at 1 µM is -3%.
